Earlier results as cited in patent US20090012088A1 (priority 2005, published 2009).

Key:
PARG [1] = biological target: PARG (Bos taurus, UniProt O02776); details: cited from earlier work
[2] = tested on: rat model of focal cerebral ischemia; details: cited from earlier work
PARG [3] = biological target: T1, PARG (Homo sapiens, UniProt Q86W56); details: cited from earlier work
34I cells = details: cited from earlier work
PARG [4] = biological target: T1, PARG; details: tannins; read-out: in vitro IC50 for PARG; cited from earlier work
[5] = tested on: human neuroblastoma cells; details: cited from earlier work

T1 sequence (Q86W56 whole entry, species assumed): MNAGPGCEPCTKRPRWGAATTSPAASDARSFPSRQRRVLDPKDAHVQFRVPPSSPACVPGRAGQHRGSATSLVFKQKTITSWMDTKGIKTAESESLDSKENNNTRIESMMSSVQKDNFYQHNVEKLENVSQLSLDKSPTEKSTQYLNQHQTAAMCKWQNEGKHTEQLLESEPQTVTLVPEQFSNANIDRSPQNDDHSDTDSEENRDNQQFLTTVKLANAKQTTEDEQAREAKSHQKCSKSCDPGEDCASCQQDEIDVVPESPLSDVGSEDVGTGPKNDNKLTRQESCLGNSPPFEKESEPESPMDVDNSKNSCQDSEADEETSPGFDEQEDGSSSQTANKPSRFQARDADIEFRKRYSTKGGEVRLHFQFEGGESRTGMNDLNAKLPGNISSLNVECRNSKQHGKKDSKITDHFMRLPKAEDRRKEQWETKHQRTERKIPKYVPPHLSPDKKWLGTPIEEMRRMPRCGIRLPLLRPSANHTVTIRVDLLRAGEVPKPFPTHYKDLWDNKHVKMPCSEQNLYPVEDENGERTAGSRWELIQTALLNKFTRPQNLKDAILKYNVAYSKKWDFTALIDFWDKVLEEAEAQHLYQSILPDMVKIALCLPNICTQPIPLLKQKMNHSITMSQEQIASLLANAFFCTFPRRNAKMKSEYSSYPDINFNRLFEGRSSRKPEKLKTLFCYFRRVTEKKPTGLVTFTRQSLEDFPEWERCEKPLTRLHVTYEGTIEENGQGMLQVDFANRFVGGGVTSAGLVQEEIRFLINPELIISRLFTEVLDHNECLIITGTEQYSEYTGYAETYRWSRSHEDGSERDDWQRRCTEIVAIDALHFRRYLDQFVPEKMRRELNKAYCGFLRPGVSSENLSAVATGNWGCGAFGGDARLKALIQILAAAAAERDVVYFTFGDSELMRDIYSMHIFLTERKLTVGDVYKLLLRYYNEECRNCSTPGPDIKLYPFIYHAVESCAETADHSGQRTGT
PARG (Bos taurus, UniProt O02776), sequence (O02776 whole entry): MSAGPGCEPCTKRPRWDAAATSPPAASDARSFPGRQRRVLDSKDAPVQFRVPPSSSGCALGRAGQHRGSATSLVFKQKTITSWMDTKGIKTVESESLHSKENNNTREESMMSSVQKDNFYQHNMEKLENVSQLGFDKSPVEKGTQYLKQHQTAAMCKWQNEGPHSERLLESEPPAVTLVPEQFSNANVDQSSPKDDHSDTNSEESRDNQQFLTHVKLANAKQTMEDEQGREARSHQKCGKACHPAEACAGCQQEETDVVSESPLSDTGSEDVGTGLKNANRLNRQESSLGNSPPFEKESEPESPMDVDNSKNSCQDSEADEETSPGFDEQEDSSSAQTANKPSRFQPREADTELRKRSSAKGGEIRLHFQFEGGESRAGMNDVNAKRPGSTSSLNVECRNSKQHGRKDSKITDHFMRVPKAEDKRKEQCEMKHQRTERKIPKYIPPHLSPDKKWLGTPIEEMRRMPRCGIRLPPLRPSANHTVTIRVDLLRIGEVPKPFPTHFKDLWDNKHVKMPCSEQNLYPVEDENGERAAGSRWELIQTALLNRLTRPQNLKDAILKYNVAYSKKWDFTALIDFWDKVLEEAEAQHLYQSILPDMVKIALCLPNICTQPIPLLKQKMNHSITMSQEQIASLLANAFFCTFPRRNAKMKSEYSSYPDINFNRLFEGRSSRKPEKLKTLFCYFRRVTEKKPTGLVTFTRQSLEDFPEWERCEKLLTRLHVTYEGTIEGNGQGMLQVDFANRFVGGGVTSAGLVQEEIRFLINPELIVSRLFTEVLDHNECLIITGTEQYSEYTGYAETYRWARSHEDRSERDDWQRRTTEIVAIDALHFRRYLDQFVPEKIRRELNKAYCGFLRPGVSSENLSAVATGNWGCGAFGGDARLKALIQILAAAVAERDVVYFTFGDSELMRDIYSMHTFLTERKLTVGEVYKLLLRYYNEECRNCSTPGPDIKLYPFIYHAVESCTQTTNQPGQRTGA

Nc1ncnc2c1ncn2[C@@H]1O[C@H](COP(=O)(O)OP(=O)(O)OC[C@H]2OC(O)[C@H](O)[C@@H]2O)[C@@H](O)[C@H]1O (stereo partly shown) [ADP-ribose]
IC50 (PARG [1]; substrate analogues, FIG. 9): 120 µM

O=C(NCCCc1ccccc1)c1ccc2c(c1)C(=O)c1cc(C(=O)NCCCc3ccccc3)ccc1-2 [GPI 16552, 2,7-Bis[N-(3-phenyl-propyl)carbamoyl]-9-Oxo-9H-fluorene]
Reduction of total infarct volume ([2]; 30-minute pre-ischemia or 1- or 2-hour post-ischemia treatment): 47-53% | Protection in cortical areas ([2]; rat, in vivo): 43-59% | Protection in subcortical areas ([2]; rat, in vivo): 28-40%

CCC(C)CC1CCC(O)(C(C)(O)C(=O)NC2C(=O)N3NCCCC3C(=O)N(O)C(C)C(=O)NCC(=O)N3NCCCC3C(=O)N(O)C(C)C(=O)OC2C(C)C)OC1C (stereo not shown) [PD 124,966]
IC50 for PARG (PARG [3]): 40 µg/mL

O=C(OC[C@H]1O[C@@H](OC(=O)c2cc(O)c(O)c(O)c2)[C@@H]2OC(=O)c3cc(O)c(O)c(O)c3-c3c(cc(O)c(O)c3O)C(=O)O[C@H]2[C@@H]1OC(=O)c1cc(O)c(O)c(O)c1Oc1cc2c(c(O)c1O)-c1c(cc(O)c(O)c1O)C(=O)O[C@H]1[C@@H]3OC(=O)c4cc(Oc5c(C(=O)O[C@H]6[C@@H]7OC(=O)c8cc(O)c(O)c(O)c8-c8c(cc(O)c(O)c8O)C(=O)O[C@H]7[C@H](OC(=O)c7cc(O)c(O)c(O)c7)O[C@@H]6COC(=O)c6cc(O)c(O)c(O)c6)cc(O)c(O)c5O)c(O)c(O)c4-c4c(cc(O)c(O)c4O)C(=O)O[C@H]3[C@H](OC(=O)c3cc(O)c(O)c(O)c3)O[C@@H]1COC2=O)c1cc(O)c(O)c(O)c1 [nobotanin E]
Inhibition of PAR catabolism in intact cells (34I cells): little inhibitory effect

O=C(OCC1OC(OC(=O)c2cc(O)c(O)c(O)c2)C2OC(=O)c3cc(O)c(O)c(O)c3-c3c(cc(O)c(O)c3O)C(=O)OC2C1OC(=O)c1cc(O)c(O)c(O)c1Oc1cc2c(c(O)c1O)-c1c(cc(O)c(O)c1O)C(=O)OC1C(COC2=O)OC(OC(=O)c2cc(O)c(O)c(O)c2)C2OC(=O)c3cc(O)c(O)c(O)c3-c3c(cc(Oc4c(C(=O)OC5C(COC(=O)c6cc(O)c(O)c(O)c6)OC(OC(=O)c6cc(O)c(O)c(O)c6)C6OC(=O)c7cc(O)c(O)c(O)c7-c7c(cc(Oc8c(C(=O)OC9OC%10COC(=O)c%11cc(O)c(O)c(O)c%11-c%11c(cc(O)c(O)c%11O)C(=O)OC%10C%10OC(=O)c%11cc(O)c(O)c(O)c%11-c%11c(cc(O)c(O)c%11O)C(=O)OC9%10)cc(O)c(O)c8O)c(O)c7O)C(=O)OC56)cc(O)c(O)c4O)c(O)c3O)C(=O)OC12)c1cc(O)c(O)c(O)c1 (stereo not shown) [nobotanin K]
IC50 (PARG [4]): 0.44 µM | Inhibition of PAR catabolism in intact cells (34I cells): little inhibitory effect

C=CCN1CCc2nc(N)sc2CC1 [talipexole]
Concentration required for protection [5]: 1 mM

adenosine diphosphate (hydroxymethyl)pyrrolidinediol [ADP-HPD]
IC50 lower than that of ADP-ribose (PARG [1]): 1000 fold

nobotanin B
IC50 (PARG [4]): 4.8 µM | Inhibition of PAR catabolism in intact cells (34I cells): concentration-dependent inhibition of PAR catabolism

pargamicin
IC50 for PARG (PARG [3]): 28 µg/mL
